Reference: the NIST ThermoML archive (doi:10.1021/je200903m)
Numbers after ± are expanded uncertainties.

Details: Liquid, isochoric method

CCn1cc[n+](C)c1.O=S(=O)([O-])C(F)(F)F [1-ethyl-3-methylimidazolium trifluoromethanesulfonate]
Details	mass density [kg/m3]
264.14 K, 39698 kPa	1434.17 ± 1.6
264.21 K, 29714 kPa	1429.2 ± 1.6
264.31 K, 10134 kPa	1419.79 ± 1.6
265.07 K, 1265.2 kPa	1414.41 ± 1.6
271.03 K, 50162 kPa	1433.46 ± 1.6
271.03 K, 50199 kPa	1433.45 ± 1.6
271.04 K, 9677.3 kPa	1413.82 ± 1.6
271.04 K, 11097 kPa	1414.79 ± 1.6
271.04 K, 19702 kPa	1419.12 ± 1.6
271.04 K, 29909 kPa	1424.08 ± 1.6
271.04 K, 30156 kPa	1424.07 ± 1.6
271.04 K, 40035 kPa	1428.5 ± 1.6
271.04 K, 40309 kPa	1428.49 ± 1.6
271.04 K, 60071 kPa	1437.92 ± 1.6
271.05 K, 20286 kPa	1419.1 ± 1.6
271.4 K, 1190.5 kPa	1408.62 ± 1.6
272.28 K, 2655.9 kPa	1408.53 ± 1.6
277.45 K, 49840 kPa	1427.83 ± 1.6
277.68 K, 39776 kPa	1423.39 ± 1.6
277.8 K, 30125 kPa	1418.42 ± 1.6
277.84 K, 10946 kPa	1407.96 ± 1.6
277.84 K, 19967 kPa	1413.12 ± 1.6
284.58 K, 20183 kPa	1407.3 ± 1.6
284.65 K, 40227 kPa	1417.71 ± 1.6
284.69 K, 60421 kPa	1427.09 ± 1.6
284.73 K, 50105 kPa	1422.67 ± 1.6
284.93 K, 30204 kPa	1412.4 ± 1.6
285.1 K, 728.1 kPa	1397.61 ± 1.5
291.42 K, 29930 kPa	1406.61 ± 1.6
291.49 K, 49838 kPa	1417.02 ± 1.6
291.92 K, 10046 kPa	1396.94 ± 1.5
291.92 K, 41361 kPa	1412.67 ± 1.6
291.94 K, 40088 kPa	1411.69 ± 1.6
292.62 K, 61503 kPa	1421.86 ± 1.6
298.19 K, 124.2 kPa	1386.18 ± 1.5
298.19 K, 39944 kPa	1405.91 ± 1.6
299.14 K, 60111 kPa	1416.26 ± 1.6
299.19 K, 50157 kPa	1410.96 ± 1.6
299.54 K, 20406 kPa	1396.18 ± 1.5
300.18 K, 1687.5 kPa	1385.35 ± 1.5
305.75 K, 49851 kPa	1405.17 ± 1.6
306.58 K, 60078 kPa	1410.23 ± 1.6
306.75 K, 10122 kPa	1384.72 ± 1.5
306.76 K, 29599 kPa	1395.48 ± 1.5
313.35 K, 59888 kPa	1404.41 ± 1.6
314.04 K, 19458 kPa	1384.01 ± 1.5
314.64 K, 40402 kPa	1394.69 ± 1.5
315.41 K, 1377.5 kPa	1372.29 ± 1.5
322.27 K, 50268 kPa	1393.94 ± 1.5
322.29 K, 30090 kPa	1383.21 ± 1.5
322.3 K, 9799.1 kPa	1371.63 ± 1.5
329.98 K, 59857 kPa	1393.19 ± 1.5
330.68 K, 40501 kPa	1382.4 ± 1.5
331.49 K, 1256.6 kPa	1358.62 ± 1.5
332.56 K, 22229 kPa	1370.66 ± 1.5
338.11 K, 9067.3 kPa	1358 ± 1.5
338.47 K, 50063 kPa	1381.64 ± 1.5
339.28 K, 30155 kPa	1370.02 ± 1.5
346.74 K, 59641 kPa	1380.85 ± 1.5
347.76 K, 20122 kPa	1357.09 ± 1.5
347.76 K, 40116 kPa	1369.21 ± 1.5

CCCCCCn1cc[n+](C)c1.F[B-](F)(F)F [1-hexyl-3-methylimidazolium tetrafluoroborate]
Details	mass density [kg/m3]
219.92 K, 2501.7 kPa	1205.15 ± 1.3
225.14 K, 11244 kPa	1204.69 ± 1.3
230.79 K, 1012.8 kPa	1196.2 ± 1.3
231.39 K, 21744 kPa	1204.14 ± 1.3
236.44 K, 10093 kPa	1195.71 ± 1.3
236.46 K, 30111 kPa	1203.69 ± 1.3
242.31 K, 19417 kPa	1195.2 ± 1.3
243.65 K, 1941.6 kPa	1186.98 ± 1.3
243.68 K, 41792 kPa	1203.05 ± 1.3
248.82 K, 49885 kPa	1202.6 ± 1.3
249.02 K, 10085 kPa	1186.52 ± 1.3
249.02 K, 30013 kPa	1194.61 ± 1.3
255.69 K, 20148 kPa	1185.95 ± 1.3
255.99 K, 40643 kPa	1194.01 ± 1.3
256.48 K, 1742.5 kPa	1177.35 ± 1.3
262.31 K, 10140 kPa	1176.87 ± 1.3
262.31 K, 30102 kPa	1185.39 ± 1.3
263.02 K, 51186 kPa	1193.4 ± 1.3
268.9 K, 59865 kPa	1192.9 ± 1.3
269.12 K, 19855 kPa	1176.3 ± 1.3
269.39 K, 40201 kPa	1184.79 ± 1.3
269.9 K, 2119.2 kPa	1166.18 ± 1.3
275.8 K, 10046 kPa	1165.7 ± 1.3
275.8 K, 29402 kPa	1175.74 ± 1.3
276.43 K, 50285 kPa	1184.19 ± 1.3
283.5 K, 20904 kPa	1165.06 ± 1.3
283.57 K, 60349 kPa	1183.59 ± 1.3
283.61 K, 39900 kPa	1175.1 ± 1.3
284.27 K, 2189.9 kPa	1156.39 ± 1.2
290.66 K, 30442 kPa	1164.48 ± 1.3
290.67 K, 30768 kPa	1165.27 ± 1.3
290.73 K, 10282 kPa	1155.88 ± 1.2
290.73 K, 29904 kPa	1164.49 ± 1.3
290.94 K, 49928 kPa	1174.49 ± 1.3
298.15 K, 104 kPa	1146.14 ± 1.2
298.15 K, 39688 kPa	1164.06 ± 1.3
298.15 K, 40557 kPa	1164.66 ± 1.3
298.17 K, 39707 kPa	1163.88 ± 1.3
298.17 K, 40239 kPa	1163.87 ± 1.3
298.52 K, 20112 kPa	1155.26 ± 1.2
299.11 K, 712.5 kPa	1145.27 ± 1.2
299.38 K, 61164 kPa	1173.79 ± 1.3
305.93 K, 49286 kPa	1163.44 ± 1.3
305.93 K, 49685 kPa	1163.24 ± 1.3
306.82 K, 10007 kPa	1144.66 ± 1.2
306.83 K, 30854 kPa	1154.59 ± 1.2
314.42 K, 60539 kPa	1162.55 ± 1.3
315.25 K, 20171 kPa	1144 ± 1.2
315.38 K, 41468 kPa	1153.9 ± 1.2
315.84 K, 1234.2 kPa	1133.94 ± 1.2
322.71 K, 50376 kPa	1153.32 ± 1.2
323.55 K, 9964.4 kPa	1133.35 ± 1.2
323.55 K, 29837 kPa	1143.36 ± 1.2
330.59 K, 59794 kPa	1152.68 ± 1.2
332.16 K, 39991 kPa	1142.68 ± 1.2
332.36 K, 19953 kPa	1132.67 ± 1.2
333.47 K, 1089.8 kPa	1121.71 ± 1.2
340.92 K, 49956 kPa	1141.99 ± 1.2
341.61 K, 9779.8 kPa	1121.11 ± 1.2
341.63 K, 29941 kPa	1131.97 ± 1.2
349.19 K, 1374.3 kPa	1111.71 ± 1.2
349.88 K, 60027 kPa	1141.28 ± 1.2
350.49 K, 39672 kPa	1131.28 ± 1.2
351.2 K, 20298 kPa	1120.38 ± 1.2
357.12 K, 9595.1 kPa	1111.13 ± 1.2
357.12 K, 26381 kPa	1119.93 ± 1.2
357.12 K, 46792 kPa	1130.77 ± 1.2

CCCCCCn1cc[n+](C)c1.O=S(=O)([O-])C(F)(F)F [1-hexyl-3-methylimidazolium trifluoromethanesulfonate]
Details	mass density [kg/m3]
303.14 K, 103.8 kPa	1234.94 ± 1.4
303.15 K, 8671.3 kPa	1241.37 ± 1.4
303.15 K, 9948.5 kPa	1242.12 ± 1.4
303.15 K, 10145 kPa	1241.33 ± 1.4
303.15 K, 18778 kPa	1246.84 ± 1.4
303.15 K, 29540 kPa	1252.92 ± 1.4
303.15 K, 50077 kPa	1263.74 ± 1.4
303.15 K, 50213 kPa	1263.74 ± 1.4
303.16 K, 19876 kPa	1246.81 ± 1.4
303.16 K, 30131 kPa	1252.9 ± 1.4
303.16 K, 40525 kPa	1258.84 ± 1.4
303.16 K, 40749 kPa	1258.84 ± 1.4
303.93 K, 1169.5 kPa	1236.1 ± 1.4
311.1 K, 19363 kPa	1240.66 ± 1.4
311.1 K, 50109 kPa	1258.15 ± 1.4
311.4 K, 59971 kPa	1263.03 ± 1.4
311.64 K, 29371 kPa	1246.09 ± 1.4
312.12 K, 10064 kPa	1235.43 ± 1.4
312.13 K, 19984 kPa	1241.37 ± 1.4
312.35 K, 40711 kPa	1252.12 ± 1.4
312.67 K, 1137.8 kPa	1229.31 ± 1.3
320.01 K, 60231 kPa	1257.4 ± 1.4
320.69 K, 29908 kPa	1239.86 ± 1.4
321.26 K, 40148 kPa	1245.28 ± 1.4
321.32 K, 10225 kPa	1228.6 ± 1.3
321.34 K, 19896 kPa	1234.67 ± 1.4
321.7 K, 51336 kPa	1251.33 ± 1.4
322.86 K, 1202 kPa	1221.53 ± 1.3
330.07 K, 40113 kPa	1239.07 ± 1.4
330.33 K, 60665 kPa	1250.61 ± 1.4
330.45 K, 29706 kPa	1233.91 ± 1.4
330.66 K, 50504 kPa	1244.49 ± 1.4
331.61 K, 20974 kPa	1227.76 ± 1.3
331.62 K, 10028 kPa	1220.82 ± 1.3
332.5 K, 1153.4 kPa	1214.09 ± 1.3
339.16 K, 49816 kPa	1238.32 ± 1.4
339.45 K, 59226 kPa	1243.78 ± 1.4
340.07 K, 39808 kPa	1233.11 ± 1.3
340.31 K, 30074 kPa	1227.04 ± 1.3
341.51 K, 9933.5 kPa	1213.37 ± 1.3
341.52 K, 20038 kPa	1220.02 ± 1.3
342.34 K, 977.2 kPa	1206.6 ± 1.3
348.25 K, 58008 kPa	1237.59 ± 1.4
349.94 K, 49966 kPa	1232.3 ± 1.3
350.06 K, 39798 kPa	1226.25 ± 1.3
351.54 K, 29910 kPa	1219.2 ± 1.3
351.77 K, 10055 kPa	1205.85 ± 1.3
351.77 K, 19878 kPa	1212.55 ± 1.3
